Data taken from the NIST ThermoML archive (doi:10.1016/j.tca.2006.03.011).
± gives the expanded uncertainty stated by the source.

Legend:
[1] = DTA; for Normal melting temperature: Crystal 1
[2] = Molar enthalpy of transition or fusion; conditions: DSC

Normal melting temperature [1] [°C] | Molar enthalpy of transition or fusion ([2]; Crystal 1) [kcal/mol] | Triple point temperature ([1]; Crystal 2) [K] | Triple point temperature ([1]; Crystal 3) [K] | Molar enthalpy of transition or fusion ([2]; Crystal 2) [kcal/mol] | Molar enthalpy of transition or fusion ([2]; Crystal 3) [kcal/mol] | Compound
38.5 ± 0.71 | 16.5 ± 0.43 | – | – | – | – | CCCCCCCCCCCCCCCCCCCC [eicosane]
81.54 ± 0.71 | 4.67 ± 0.141 | – | – | – | – | c1ccc2ccccc2c1 [naphthalene]
52.77 ± 0.71 | 13.3 ± 0.359 | 312.9 ± 0.71 | 309 ± 0.71 | 0.256 ± 0.0311 | 5.71 ± 0.167 | CCCCCCCCCCCCCCCCCCCCCCCCC [pentacosane]
77.04 ± 0.71 | 19.5 ± 0.502 | 348.28 ± 0.71 | 347.33 ± 0.71 | 5.91 ± 0.172 | 2.8 ± 0.0932 | CCCCCCCCCCCCCCCCCCCCCCCCCCCCCCCCCCCC [hexatriacontane]
